The text below walks through data of PubChem BioAssay (NCI).

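The compound was tested at five concentrations on cells cultured in 96-well plates, with a 48-hour exposure period. GI50 = concentration required for 50% inhibition of growth. TGI: concentration producing complete growth inhibition.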 Some results are limits rather than exact numbers.

Common to all, as to experiment: NCI anticancer screen, dose series, 48 h
The subject of test [1] is CAKI-1 renal.
In test [2] the test system is OVCAR-5 ovarian.
Test [3] has as its system HOP-92 NSCLC.
Test [4] deals with U251 CNS.
Test [5] deals with TK-10 renal.
In test [6] the test system is SF-268 CNS.
For test [7], the system named is SW-620 colon.
For test [8], the system named is A549 NSCLC.
In test [9] the test system is SF-295 CNS.
Test [10] deals with NCI-H522 lung.

Take `CCCCCCCCOCC(O)COC(=O)CCCCCCC` (stereo unspecified): the TGI in test [1] was greater than 100 µM; in test [2], greater than 100 µM; in [3], 82.3 µM; in test [4], greater than 100 µM; in test [5], greater than 100 µM; in test [6] it was greater than 100 µM. Further, the TGI in [7], in [8] and in test [9] was greater than 100 µM in each case.

As for `N#Cc1c2c(c(N=P(c3ccccc3)(c3ccccc3)c3ccccc3)n3c1nc1ccccc13)CCCC2`, the TGI in test [1] is greater than 100 µM; in [4] it was 77.9 µM; in test [6], greater than 100 µM; in [7] it was greater than 100 µM; in test [10], 41.8 µM; in test [8], greater than 100 µM. For the same compound, the TGI in test [9] is greater than 100 µM.

Consider `Cc1ccc2ncnc(N(CC(C)C)CC(C)C)c2c1`, for which the GI50 in test [1] is 12.8 µM; in test [2], 20.1 µM; in test [3] it was 8.36 µM; in [4], 16.5 µM; in [5], 19.4 µM; in test [6] it was 16.2 µM. Moreover, the GI50 in test [10] is 18.9 µM; in test [8], 9.43 µM; in [9] it was 16.7 µM. In addition, the TGI was found to be 26.6 µM in test [1]; 43.7 µM in test [2]; 24 µM in [3]; 33.3 µM in [4]; 37.5 µM in test [5]; 37.7 µM in test [6]. The TGI in test [10] was greater than 100 µM; in [8], 25.3 µM; in test [9] it was 32.7 µM.

In the case of `NC(N)=N/N=C/c1c(-c2cc(Cl)sc2Cl)nc2sccn12`, the GI50 is 7.65 µM in test [1]; 0.956 µM in [2]; 0.799 µM in test [4]; 1.29 µM in [5]; 1.26 µM in test [6]; 1 µM in [7]. In addition, the GI50 is 1.76 µM in [10], 2.17 µM in test [8] and 1.62 µM in test [9]. The TGI in test [1] is 16.3 µM; in test [2] it was 2.05 µM; in test [4] it was 1.56 µM; in [5], 2.78 µM; in [6] it was 3.9 µM; in [7], 2.43 µM. In addition, the TGI is greater than 50 µM in test [10], 11.3 µM in test [8] and 6.15 µM in test [9].

Take `CCN(CC)CCOc1ccccc1/C=C/c1noc2ccccc12`: the TGI was determined as 26.2 µM in test [1]; 25.1 µM in test [2]; 28.7 µM in test [5]; 37 µM in test [6]; 23 µM in test [7]; 22.2 µM in test [10]. For the same compound, the TGI in [9] stood at 29.7 µM.

On to `CC(/C(=N\Nc1ccccc1)c1ccc(O)cc1)C1C(=O)Oc2ccccc21` (stereo unspecified), for which the TGI in test [1], in test [4], in [5], in test [7], in test [8] and in test [9] was greater than 100 µM throughout.

As to `COC(=O)C(C(=O)C(=O)Nc1nc(=S)[nH][nH]1)c1csc(-n2nc(-c3ccccc3)cc2-c2ccccc2)n1` (stereo unspecified), the TGI in [1], in test [2], in test [3], in [4], in [5] and in [6] was greater than 100 µM each time. In addition, the TGI in [7], in test [10] and in test [8] was greater than 100 µM in each case.

For the compound `O=CNc1ncn[nH]1`, the TGI in test [1], in test [2], in test [4], in test [5], in test [6] and in test [7] was greater than 100 µM each time. The TGI in [10], in [8] and in [9] was greater than 100 µM throughout.

As to `CO[C@@H]1C=C[C@@]23c4cc5c(cc4C(=O)O[C@H]2CN(C)[C@H]3C1)OCO5`, the TGI in [2], in [3], in test [4], in test [5], in test [6] and in [7] was greater than 100 µM each time. The TGI in [10], in test [8] and in [9] was greater than 100 µM in each case.

Consider `COC(=O)C(CC(C)C)NC(=O)NC12CC3CC(CC(F)(C3)C1)C2` (stereo unspecified), for which the TGI in [2], in test [3], in test [4], in [5], in [7] and in test [10] was greater than 100 µM in each case. The same compound came in with a TGI in [8] greater than 100 µM.

As for `Cc1cc2c(cc1C)[n+](=O)c(C(=O)C/C(=N/OCCCc1ccccc1)C(=O)Nc1cc(Cl)ccc1Cl)c(C)n2[O-]`, the TGI in test [1], in test [2], in test [4], in test [5], in test [6] and in [7] was greater than 100 µM throughout. Besides, the TGI in [10], in test [8] and in test [9] was greater than 100 µM in each case.

On to `CC[P+](C)(C)c1ccccc1`, for which the TGI in test [1], in [2], in test [4], in test [5], in test [6] and in test [7] was greater than 100 µM each time. Moreover, the TGI in [8] and in test [9] was greater than 100 µM in each case.

Turning to `O=C(O)c1cc(/C=C/c2cc(O)ccc2O)ccc1O`, the TGI in [2], in [4], in test [5], in [6], in test [7] and in test [10] was greater than 10 µM in each case. The TGI in [8] and in test [9] was greater than 10 µM each time.

As for `Clc1cccc(Cl)c1C1CSc2ccccc2N=C1c1ccccc1` (stereo unspecified), the GI50 was 10.6 µM in [1]; 3.88 µM in [2]; 2.11 µM in [4]; 3.69 µM in [5]; 3.07 µM in test [6]; 2.34 µM in test [7]. Moreover, the values for the GI50 in [10], in [8] and in test [9] were 3.52 µM, 12.2 µM and 13.6 µM, respectively. For the same compound, the TGI in test [1] is 29.8 µM; in test [2], 13.2 µM; in test [4] it was 4.54 µM; in test [5], 9.27 µM; in [6], 11.2 µM; in test [7], 5.64 µM. Moreover, the TGI in test [10] came out at 14.5 µM; in [8], 28.1 µM; in test [9] it was 31.7 µM.

With `CC(=O)NC1=C(NCCN(C)C)C(=O)c2ccccc2C1=O`, the TGI in test [4] was 29 µM; in [5], greater than 50 µM; in test [6] it was greater than 50 µM; in [7] it was greater than 50 µM; in test [10], 23.8 µM; in test [8] it was 48.8 µM. In test [9], this compound gave a TGI greater than 50 µM.

`COc1c(C(=O)c2ccc([N+](=O)[O-])cc2)cc(C(C)(C)C)cc1C(C)(C)C`: the TGI in test [1] was greater than 100 µM; in test [2] it was greater than 100 µM; in [4], 50.1 µM; in test [5], greater than 100 µM; in test [6], greater than 100 µM; in test [7], greater than 100 µM. Besides, the TGI in [10] was 56.9 µM; in test [8], greater than 100 µM; in test [9], greater than 100 µM.

Consider `O=C1c2nsnc2C(=O)c2c(F)c(F)c(F)c(F)c21`, for which the GI50 is 1.93 µM in test [2]; 1.38 µM in [4]; 0.71 µM in [5]; 1.6 µM in test [6]; 0.172 µM in test [7]; 2.15 µM in [8]. Moreover, the GI50 in test [9] was 1.4 µM. The TGI in test [2] turned out to be 3.47 µM; in [4], 2.94 µM; in test [5], 1.92 µM; in [6] it was 3.17 µM; in [7], 0.348 µM; in [8], 4.85 µM. The same compound displayed a TGI in test [9] of 2.99 µM.

In the case of `OCC(O)C(O)C(O)c1nn(-c2ccc(Cl)cc2)c2nc3cc(Cl)c(Cl)cc3nc12` (stereo unspecified), the TGI in [1], in test [2], in test [4], in test [5], in test [6] and in test [7] was greater than 100 µM in each case. The TGI in test [10], in test [8] and in test [9] was greater than 100 µM in each case.

For `Cc1ccc(S(=O)(=O)N2CCSCCN(S(=O)(=O)c3ccc(C)cc3)CCN(S(=O)(=O)c3ccc(C)cc3)CC2)cc1`, the TGI in test [2] is greater than 100 µM; in test [3], 9.06 µM; in test [4], 90.1 µM; in [6], greater than 100 µM; in [7], greater than 100 µM; in test [8], greater than 100 µM. The TGI in [9] is greater than 100 µM.

For `CCc1c(Cc2[nH]c(Cc3[nH]c(C=O)c(C)c3CC)c(CC)c2CC)[nH]c(C=O)c1C`, the TGI in test [1], in test [4], in test [5], in [6], in test [7] and in [10] was greater than 100 µM each time. In addition, the TGI in test [8] and in test [9] was greater than 100 µM throughout.

`Cc1ccc(NC(=O)C(=O)C(C#N)c2nc(-c3ccc(-c4ccccc4)cc3)cs2)c(C)c1` (stereo unspecified): the TGI in test [1] was greater than 100 µM; in [2], greater than 100 µM; in test [3], greater than 1 µM; in [4] it was greater than 100 µM; in [5], greater than 100 µM; in test [6], greater than 100 µM. In addition, the TGI in test [7], in [8] and in test [9] was greater than 100 µM throughout.

Take `COC(=O)/C=C(\C(=O)OC)c1c2c3c(cc(OC)c(OC)c3c3ccccc13)CCN2C`: the TGI in [2], in [3], in [4], in [5], in test [6] and in [7] was greater than 100 µM each time. Moreover, the values for the TGI in test [10], in test [8] and in test [9] were 74 µM, greater than 100 µM and greater than 100 µM, respectively.

As to `COC(=O)/C(=N\Nc1nc(=S)[nH]n1N)C(C#N)c1ccccc1` (stereo unspecified), the TGI in test [2], in test [4], in [5], in [6], in test [7] and in test [10] was greater than 100 µM each time. Besides, in test [8], the TGI was greater than 100 µM.

As to `O=C1c2ccccc2C(=O)N1CCN(CCN1C(=O)c2ccccc2C1=O)Cn1cccn1`, the TGI in [1], in [3], in [4], in [5], in test [6] and in test [7] was greater than 100 µM in each case. The TGI in test [10], in test [8] and in test [9] was greater than 100 µM throughout.

Take `O=C1CCC2CC(C(=O)c3ccccc3)CCC2CN1` (stereo unspecified) (tested in a mixture with another compound): the TGI in test [1], in [2], in [4], in test [6], in [7] and in test [10] was greater than 100 µM throughout. Besides, the TGI in test [8] and in [9] was greater than 100 µM throughout.

`O=C1NC(=O)C(=C/C=C/c2ccccc2)C(=O)N1`: the GI50 in test [2] is 5.33 µM; in test [4], 2.5 µM; in test [5], 5.62 µM; in test [6] it was 3.2 µM; in [7], 1.79 µM; in [10], 2.36 µM. Moreover, the GI50 in test [8] is 7.06 µM. The TGI was determined as 23 µM in test [2]; 10.3 µM in [4]; 18.3 µM in [5]; 10.3 µM in test [6]; 4.22 µM in [7]; 7.15 µM in [10]. Further, the TGI in test [8] stood at 28 µM.

As for `CCOC(=O)C1C2CCC(C2)C1(CCl)C(=O)OCC` (stereo unspecified), the TGI in [1], in test [2], in test [3], in test [4], in test [5] and in [6] was greater than 100 µM in each case. Also, the TGI in test [7], in test [8] and in test [9] was greater than 100 µM in each case.
